Source: patent US7074922B2, “Method for producing the tautomeric form of (1) of 2,4,6-trianilino-p-(carbo-1′-ethylhexyl-1′oxyl)-1, 3, 5-triazine” (BASF Aktiengesellschaft, priority 2002, dated 2006)

Assay: Storage stability of solutions in cosmetic oils (clouding and precipitation)
Assay type: physicochemical
Conditions: after 2 days
Text: Storage Stability of Solutions of the Tautomeric Form I in Cosmetic Oils
Both solutions were still clear after 2 days.

appearance of solution on storage (solution in C8–C10-coconut fatty acid triglyceride): still clear
appearance of solution on storage (solution in cetylstearyl 2-ethylhexanoate): still clear
Compound: CCCCC(CC)COC(=O)c1ccc(Nc2nc(Nc3ccc(C(=O)OCC(CC)CCCC)cc3)nc(Nc3ccc(C(=O)OCC(CC)CCCC)cc3)n2)cc1 (centres unmarked) [I, 2,4,6-trianilino-p-(carbo-2′-ethylhexyl-1′-oxy)-1,3,5-triazine]
